Laboratory results published in paper PMC8550792, “Evolution of kinase polypharmacology across HSP90 drug discovery” (Cell Chemical Biology, 2021).

Experiments:
Assay in all cases: biochemical
Type in all cases: biochemical
[1] = target: T1, 382 unique human kinases (Homo sapiens, UniProt Q04771); settings: ALK2/ACVR1, compound at 10 uM, duplicate values; for remaining activity at 10 µM: read-out: % Enzyme Activity (relative to DMSO controls)
T1 construct: purchased Reaction Biology (HotSpot contract assay)
T1 sequence (Q04771 21-509): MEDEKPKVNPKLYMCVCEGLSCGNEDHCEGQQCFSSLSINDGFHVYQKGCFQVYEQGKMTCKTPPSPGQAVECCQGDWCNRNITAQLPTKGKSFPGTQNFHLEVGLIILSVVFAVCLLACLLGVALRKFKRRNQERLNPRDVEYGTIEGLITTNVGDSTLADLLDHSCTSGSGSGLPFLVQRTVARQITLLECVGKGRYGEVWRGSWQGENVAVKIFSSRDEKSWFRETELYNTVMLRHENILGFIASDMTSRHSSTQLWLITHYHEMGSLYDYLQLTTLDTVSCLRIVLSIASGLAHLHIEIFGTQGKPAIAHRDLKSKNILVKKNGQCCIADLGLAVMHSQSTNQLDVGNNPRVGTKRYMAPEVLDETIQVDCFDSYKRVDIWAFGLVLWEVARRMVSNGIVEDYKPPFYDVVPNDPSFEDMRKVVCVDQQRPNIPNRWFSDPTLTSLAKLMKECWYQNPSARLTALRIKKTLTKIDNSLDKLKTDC

[2] = target: T2, 382 unique human kinases (Homo sapiens, UniProt Q06187, E41K); settings: BTK (E41K), 10 uM; for remaining activity at 10 µM: read-out: % Enzyme Activity (relative to DMSO controls)
T2 construct: purchased Reaction Biology (HotSpot contract assay)
T2 sequence (Q06187 whole entry E41K): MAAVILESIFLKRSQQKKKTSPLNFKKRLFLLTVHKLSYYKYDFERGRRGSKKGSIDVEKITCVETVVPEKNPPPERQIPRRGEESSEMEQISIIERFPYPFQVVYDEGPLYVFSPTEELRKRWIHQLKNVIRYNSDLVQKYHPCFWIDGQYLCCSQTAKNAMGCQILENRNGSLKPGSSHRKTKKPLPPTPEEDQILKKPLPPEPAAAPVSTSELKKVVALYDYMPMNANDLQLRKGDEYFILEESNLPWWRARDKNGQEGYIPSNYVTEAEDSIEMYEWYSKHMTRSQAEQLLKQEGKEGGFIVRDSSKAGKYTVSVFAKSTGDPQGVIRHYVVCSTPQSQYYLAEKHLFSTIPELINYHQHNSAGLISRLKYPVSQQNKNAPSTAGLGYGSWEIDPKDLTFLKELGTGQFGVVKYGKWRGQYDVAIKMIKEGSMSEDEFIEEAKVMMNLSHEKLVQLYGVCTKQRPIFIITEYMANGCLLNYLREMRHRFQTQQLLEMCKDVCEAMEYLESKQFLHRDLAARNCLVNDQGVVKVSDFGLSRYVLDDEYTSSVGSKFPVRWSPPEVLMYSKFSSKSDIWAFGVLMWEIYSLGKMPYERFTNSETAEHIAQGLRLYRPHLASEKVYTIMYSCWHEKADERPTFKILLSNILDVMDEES

[3] = target: T3, 382 unique human kinases (Homo sapiens, UniProt Q6IQ55); settings: TTBK2, compound at 10 uM, duplicate values; for remaining activity at 10 µM: read-out: % Enzyme Activity (relative to DMSO controls)
T3 construct: purchased Reaction Biology (HotSpot contract assay)

[4] = target: T4, 382 unique human kinases (Homo sapiens, UniProt Q8WTQ7); settings: GRK7, 10 uM; for remaining activity at 10 µM: read-out: % Enzyme Activity (relative to DMSO controls)
T4 construct: purchased Reaction Biology (HotSpot contract assay)
T4 sequence (Q8WTQ7 1-553): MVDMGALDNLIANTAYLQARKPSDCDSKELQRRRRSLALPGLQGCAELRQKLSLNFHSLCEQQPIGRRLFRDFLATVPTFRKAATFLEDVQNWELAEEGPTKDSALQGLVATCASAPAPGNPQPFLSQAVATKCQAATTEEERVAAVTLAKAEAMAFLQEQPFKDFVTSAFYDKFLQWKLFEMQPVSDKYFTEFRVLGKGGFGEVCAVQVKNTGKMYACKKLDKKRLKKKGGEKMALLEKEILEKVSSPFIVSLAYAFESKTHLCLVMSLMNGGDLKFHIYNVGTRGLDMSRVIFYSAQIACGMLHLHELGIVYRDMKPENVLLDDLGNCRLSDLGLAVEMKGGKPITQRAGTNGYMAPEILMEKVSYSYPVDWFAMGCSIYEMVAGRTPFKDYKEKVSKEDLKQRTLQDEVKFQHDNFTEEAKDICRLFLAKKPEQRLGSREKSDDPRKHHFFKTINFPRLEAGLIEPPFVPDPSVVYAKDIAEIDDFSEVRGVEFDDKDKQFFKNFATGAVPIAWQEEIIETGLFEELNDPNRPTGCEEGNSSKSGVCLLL

[5] = target: T5, 382 unique human kinases (Homo sapiens, UniProt Q9NYY3); settings: kinase PLK2, compound 10 uM; for remaining activity at 10 µM: read-out: % Enzyme Activity (relative to DMSO controls)
T5 construct: purchased Reaction Biology (HotSpot contract assay)
T5 sequence (Q9NYY3 whole entry): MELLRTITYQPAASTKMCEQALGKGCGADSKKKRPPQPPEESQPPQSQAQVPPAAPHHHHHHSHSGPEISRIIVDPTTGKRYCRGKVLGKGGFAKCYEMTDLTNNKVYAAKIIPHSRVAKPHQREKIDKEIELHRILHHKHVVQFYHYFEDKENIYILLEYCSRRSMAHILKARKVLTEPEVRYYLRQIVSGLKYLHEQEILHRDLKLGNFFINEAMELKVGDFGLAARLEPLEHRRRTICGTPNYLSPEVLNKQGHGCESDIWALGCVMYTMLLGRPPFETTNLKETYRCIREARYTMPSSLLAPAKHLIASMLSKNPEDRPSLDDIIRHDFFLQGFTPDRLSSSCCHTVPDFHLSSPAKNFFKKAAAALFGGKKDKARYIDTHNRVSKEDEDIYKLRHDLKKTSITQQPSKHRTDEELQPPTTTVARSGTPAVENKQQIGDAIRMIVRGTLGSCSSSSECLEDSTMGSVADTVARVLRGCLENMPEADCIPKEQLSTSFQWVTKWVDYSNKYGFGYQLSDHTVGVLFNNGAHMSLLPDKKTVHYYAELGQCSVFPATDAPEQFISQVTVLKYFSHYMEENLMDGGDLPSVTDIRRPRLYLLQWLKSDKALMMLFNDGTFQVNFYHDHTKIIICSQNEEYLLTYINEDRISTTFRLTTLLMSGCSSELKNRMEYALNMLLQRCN

[6] = target: T6, 382 unique human kinases (Homo sapiens, UniProt Q9UM73, G1269S); settings: ALK (G1269S), 10 uM; for remaining activity at 10 µM: read-out: % Enzyme Activity (relative to DMSO controls)
T6 construct: purchased Reaction Biology (HotSpot contract assay)
T6 sequence (Q9UM73 19-1620 G1269S): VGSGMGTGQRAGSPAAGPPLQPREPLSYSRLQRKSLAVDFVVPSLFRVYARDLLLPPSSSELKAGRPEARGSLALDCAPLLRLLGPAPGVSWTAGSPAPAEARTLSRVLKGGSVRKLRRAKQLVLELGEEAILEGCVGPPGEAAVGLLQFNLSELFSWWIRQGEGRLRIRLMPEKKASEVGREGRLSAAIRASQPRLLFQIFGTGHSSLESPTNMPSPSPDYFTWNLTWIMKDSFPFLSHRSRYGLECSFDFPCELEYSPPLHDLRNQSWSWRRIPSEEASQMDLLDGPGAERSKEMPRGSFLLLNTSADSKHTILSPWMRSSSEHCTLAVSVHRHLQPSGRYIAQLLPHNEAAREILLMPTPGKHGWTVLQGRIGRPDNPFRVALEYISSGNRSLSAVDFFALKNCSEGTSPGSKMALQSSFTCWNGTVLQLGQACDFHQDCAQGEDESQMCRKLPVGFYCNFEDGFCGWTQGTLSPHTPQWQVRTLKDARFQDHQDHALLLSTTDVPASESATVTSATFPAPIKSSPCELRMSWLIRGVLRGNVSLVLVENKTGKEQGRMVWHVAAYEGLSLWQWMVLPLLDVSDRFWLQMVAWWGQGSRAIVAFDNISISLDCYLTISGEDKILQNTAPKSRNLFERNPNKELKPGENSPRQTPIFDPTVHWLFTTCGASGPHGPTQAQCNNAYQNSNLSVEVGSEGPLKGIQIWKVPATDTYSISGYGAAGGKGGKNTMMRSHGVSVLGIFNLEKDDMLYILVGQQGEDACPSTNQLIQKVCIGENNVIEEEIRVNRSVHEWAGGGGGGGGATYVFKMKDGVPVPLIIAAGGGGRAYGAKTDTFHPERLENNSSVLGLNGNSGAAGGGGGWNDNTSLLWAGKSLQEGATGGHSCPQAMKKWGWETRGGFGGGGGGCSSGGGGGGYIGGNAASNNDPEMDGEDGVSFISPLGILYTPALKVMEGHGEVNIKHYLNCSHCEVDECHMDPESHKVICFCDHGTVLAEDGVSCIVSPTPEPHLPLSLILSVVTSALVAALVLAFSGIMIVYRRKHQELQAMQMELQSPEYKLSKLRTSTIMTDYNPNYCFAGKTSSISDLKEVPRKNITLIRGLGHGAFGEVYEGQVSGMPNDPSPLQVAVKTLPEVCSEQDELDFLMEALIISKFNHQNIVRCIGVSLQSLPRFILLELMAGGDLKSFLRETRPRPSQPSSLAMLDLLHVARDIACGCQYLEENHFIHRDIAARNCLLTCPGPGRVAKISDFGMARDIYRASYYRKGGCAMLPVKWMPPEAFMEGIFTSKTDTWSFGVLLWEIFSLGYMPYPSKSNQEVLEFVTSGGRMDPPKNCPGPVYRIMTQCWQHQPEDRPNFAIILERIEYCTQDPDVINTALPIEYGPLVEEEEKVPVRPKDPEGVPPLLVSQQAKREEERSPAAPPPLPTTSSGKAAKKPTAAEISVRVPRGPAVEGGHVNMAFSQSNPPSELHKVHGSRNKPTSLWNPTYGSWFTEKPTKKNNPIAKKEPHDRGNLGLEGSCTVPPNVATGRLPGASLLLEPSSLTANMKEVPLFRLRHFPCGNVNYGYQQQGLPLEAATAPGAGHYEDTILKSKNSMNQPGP

[7] = target: T7, 382 unique human kinases (Homo sapiens, UniProt O95382); settings: MEKK6, 10 uM; for remaining activity at 10 µM: read-out: % Enzyme Activity (relative to DMSO controls)
T7 construct: purchased Reaction Biology (HotSpot contract assay)
T7 sequence (O95382 1-1288): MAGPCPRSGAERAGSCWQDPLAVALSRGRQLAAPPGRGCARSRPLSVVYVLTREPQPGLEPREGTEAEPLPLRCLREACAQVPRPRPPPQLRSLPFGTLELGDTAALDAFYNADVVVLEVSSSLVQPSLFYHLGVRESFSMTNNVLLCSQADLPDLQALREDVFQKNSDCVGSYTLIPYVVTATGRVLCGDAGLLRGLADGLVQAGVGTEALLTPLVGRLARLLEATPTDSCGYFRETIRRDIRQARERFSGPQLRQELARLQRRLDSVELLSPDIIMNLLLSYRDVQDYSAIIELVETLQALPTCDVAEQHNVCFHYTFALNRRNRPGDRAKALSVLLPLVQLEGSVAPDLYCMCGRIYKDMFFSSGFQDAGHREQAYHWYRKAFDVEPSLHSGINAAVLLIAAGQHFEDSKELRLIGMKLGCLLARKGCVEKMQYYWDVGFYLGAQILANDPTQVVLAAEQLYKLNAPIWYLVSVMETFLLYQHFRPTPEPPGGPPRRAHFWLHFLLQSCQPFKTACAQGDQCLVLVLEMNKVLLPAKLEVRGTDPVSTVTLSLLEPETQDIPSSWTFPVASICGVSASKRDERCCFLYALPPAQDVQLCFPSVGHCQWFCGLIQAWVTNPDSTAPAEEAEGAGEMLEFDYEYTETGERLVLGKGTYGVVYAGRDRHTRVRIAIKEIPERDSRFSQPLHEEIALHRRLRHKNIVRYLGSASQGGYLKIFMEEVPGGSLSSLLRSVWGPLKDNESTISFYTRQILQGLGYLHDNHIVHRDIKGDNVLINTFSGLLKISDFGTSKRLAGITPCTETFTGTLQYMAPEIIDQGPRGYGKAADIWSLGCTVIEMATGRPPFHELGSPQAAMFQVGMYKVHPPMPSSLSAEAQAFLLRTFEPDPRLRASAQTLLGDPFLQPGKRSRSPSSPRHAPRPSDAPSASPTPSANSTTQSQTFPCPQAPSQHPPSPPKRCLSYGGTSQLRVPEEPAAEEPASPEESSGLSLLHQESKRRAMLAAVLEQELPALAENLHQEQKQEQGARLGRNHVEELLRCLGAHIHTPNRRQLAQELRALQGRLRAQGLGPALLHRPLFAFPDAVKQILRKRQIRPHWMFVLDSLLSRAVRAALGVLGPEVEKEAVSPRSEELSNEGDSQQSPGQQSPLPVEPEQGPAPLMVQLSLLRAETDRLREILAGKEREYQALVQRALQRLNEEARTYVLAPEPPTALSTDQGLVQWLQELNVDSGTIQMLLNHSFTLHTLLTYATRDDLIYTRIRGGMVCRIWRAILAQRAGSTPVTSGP

[8] = target: T8, 382 unique human kinases (Homo sapiens, UniProt P00519, E255K); settings: ABL1 (E255K), [ATP] 5 µM, compound 10 uM; for remaining activity at 10 µM: read-out: % Enzyme Activity (relative to DMSO controls)
T8 construct: purchased Reaction Biology (HotSpot contract assay)
T8 sequence (P00519 whole entry E255K): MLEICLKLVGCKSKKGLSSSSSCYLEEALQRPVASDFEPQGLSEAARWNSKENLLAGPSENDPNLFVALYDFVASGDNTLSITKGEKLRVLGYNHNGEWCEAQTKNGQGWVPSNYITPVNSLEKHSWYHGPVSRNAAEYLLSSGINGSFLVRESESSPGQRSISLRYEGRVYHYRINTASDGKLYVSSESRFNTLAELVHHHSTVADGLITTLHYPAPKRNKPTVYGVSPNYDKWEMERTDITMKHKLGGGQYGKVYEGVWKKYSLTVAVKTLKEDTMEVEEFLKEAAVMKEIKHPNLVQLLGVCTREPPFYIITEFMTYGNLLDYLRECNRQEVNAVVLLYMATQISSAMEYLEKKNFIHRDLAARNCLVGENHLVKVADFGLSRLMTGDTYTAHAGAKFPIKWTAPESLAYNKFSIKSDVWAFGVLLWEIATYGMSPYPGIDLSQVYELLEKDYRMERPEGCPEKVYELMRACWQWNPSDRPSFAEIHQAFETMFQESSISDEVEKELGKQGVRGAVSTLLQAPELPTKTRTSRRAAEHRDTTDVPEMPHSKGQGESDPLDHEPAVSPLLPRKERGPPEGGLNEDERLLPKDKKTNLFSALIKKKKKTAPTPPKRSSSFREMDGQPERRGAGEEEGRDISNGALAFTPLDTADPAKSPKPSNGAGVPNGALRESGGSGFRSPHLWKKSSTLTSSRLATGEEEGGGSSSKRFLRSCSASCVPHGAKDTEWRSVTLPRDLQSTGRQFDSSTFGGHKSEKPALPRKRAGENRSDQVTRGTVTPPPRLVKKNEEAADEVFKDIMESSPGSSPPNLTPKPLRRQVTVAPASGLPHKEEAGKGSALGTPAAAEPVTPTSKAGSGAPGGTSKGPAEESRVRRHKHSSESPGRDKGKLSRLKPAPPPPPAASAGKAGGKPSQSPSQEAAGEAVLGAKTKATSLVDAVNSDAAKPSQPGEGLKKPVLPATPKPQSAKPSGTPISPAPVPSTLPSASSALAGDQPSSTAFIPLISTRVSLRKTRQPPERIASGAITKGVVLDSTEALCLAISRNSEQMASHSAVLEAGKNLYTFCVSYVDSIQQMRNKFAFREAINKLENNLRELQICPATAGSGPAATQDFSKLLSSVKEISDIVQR

[9] = target: T9, 382 unique human kinases (Homo sapiens, UniProt Q5TCY1); settings: TTBK1, 10 uM; for remaining activity at 10 µM: read-out: % Enzyme Activity (relative to DMSO controls)
T9 construct: purchased Reaction Biology (HotSpot contract assay)

SMILES	remaining activity at 10 µM [1] [%]	remaining activity at 10 µM [2] [%]	remaining activity at 10 µM [3] [%]	remaining activity at 10 µM [4] [%]	remaining activity at 10 µM [5] [%]	remaining activity at 10 µM [6] [%]	remaining activity at 10 µM [7] [%]	remaining activity at 10 µM [8] [%]	remaining activity at 10 µM [9] [%]	% Enzyme Activity (relative to DMSO controls) [1] [%]	% Enzyme Activity (relative to DMSO controls) [2] [%]	% Enzyme Activity (relative to DMSO controls) [3] [%]	% Enzyme Activity (relative to DMSO controls) [4] [%]	% Enzyme Activity (relative to DMSO controls) [5] [%]	% Enzyme Activity (relative to DMSO controls) [6] [%]	% Enzyme Activity (relative to DMSO controls) [7] [%]	% Enzyme Activity (relative to DMSO controls) [8] [%]	% Enzyme Activity (relative to DMSO controls) [9] [%]
CC(C)c1cc(-c2n[nH]c(=O)n2-c2ccc3c(ccn3C)c2)c(O)cc1O [Ganetespib (STA9090)]	125	65.4	124	75.4	86.1	74.6												
CC(C)c1cc(-c2n[nH]c(=O)n2-c2ccc3c(ccn3C)c2)c(O)cc1O [Ganetespib]							94.2	4.77	101									
CCNC(=O)c1noc(-c2cc(C(C)C)c(O)cc2O)c1-c1ccc(CN2CCOCC2)cc1 [Luminespib (AUY-922)]	120	96.8	122	96.7	106	104				117.92	96.25	121.05	95.66	105.08	101.62			
CCNC(=O)c1noc(-c2cc(C(C)C)c(O)cc2O)c1-c1ccc(CN2CCOCC2)cc1 [Luminespib]							96	14.7	109							94.49	14.20	109.07
